This note sets out measurements from ChEMBL document CHEMBL1641430, “Cholinergic and neuroprotective drugs for the treatment of Alzheimer and neuronal vascular diseases. II. Synthesis, biological assessment, and molecular modelling of new tacrine analogues from highly substituted 2-aminopyridine-3-carbonitriles” (Bioorg Med Chem, 2011).

In assay [1] the test system is SH-SY5Y. As to the kind of experiment: Neuroprotection against rotenone/oligomycin-A-indced human SH-SY5Y cell death assessed as protective effect at 1 uM after 2 hrs by MTT assay. The assay is classed as functional.
Assay [2] concerns the target T1, Acetylcholinesterase (Bos taurus, UniProt P23795).
T1 sequence (P23795 whole entry): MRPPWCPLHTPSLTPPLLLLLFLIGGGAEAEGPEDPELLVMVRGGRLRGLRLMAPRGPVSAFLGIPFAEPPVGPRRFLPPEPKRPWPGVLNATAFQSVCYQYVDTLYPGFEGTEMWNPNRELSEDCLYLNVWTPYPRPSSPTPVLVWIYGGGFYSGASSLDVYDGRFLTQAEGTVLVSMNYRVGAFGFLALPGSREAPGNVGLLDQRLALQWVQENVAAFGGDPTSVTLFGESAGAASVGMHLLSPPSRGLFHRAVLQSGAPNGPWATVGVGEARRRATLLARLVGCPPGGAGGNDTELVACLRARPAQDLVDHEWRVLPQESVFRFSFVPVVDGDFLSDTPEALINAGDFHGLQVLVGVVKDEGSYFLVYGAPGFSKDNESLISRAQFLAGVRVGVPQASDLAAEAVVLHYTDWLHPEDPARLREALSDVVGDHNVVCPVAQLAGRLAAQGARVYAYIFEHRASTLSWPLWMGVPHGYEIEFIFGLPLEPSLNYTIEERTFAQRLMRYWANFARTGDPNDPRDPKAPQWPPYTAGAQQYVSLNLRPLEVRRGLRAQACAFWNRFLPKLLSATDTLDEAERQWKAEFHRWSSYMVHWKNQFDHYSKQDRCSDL
Description: Inhibition of bovine erythrocytes AChE by Ellman's method

The target of assay [3] is Acetylcholinesterase (Electrophorus electricus, UniProt O42275).
Description: Inhibition of Electrophorus electricus AChE by Ellman's method
The target of another assay is Cholinesterase (Equus caballus, UniProt P81908).
Assay [4] concerns SH-SY5Y. As to the kind of experiment: Neuroprotection against okadaic acid-induced human SH-SY5Y cell death assessed as reduction in LDH release at 0.3 uM relative to control. The assay is classed as functional. On the set-up: scale not given: the % may be the effect or the level left. (LDH leaks from cells whose membrane has failed.)
In assay [5] the target is Acetylcholinesterase (Homo sapiens) (UniProt P22303). In words: Antagonist activity at human nAChR in human SH-SY5Y cells assessed as inhibition of 70 mM K+ induced cytosolic Ca2+ signal at 0.3 to 100 uM. The assay is classed as functional, cell-based.
The test system of assay [6] is SH-SY5Y. In words: Neuroprotection against okadaic acid-induced human SH-SY5Y cell death assessed as reduction in cell death at 0.1 to 1 uM. The assay is classed as functional, cell-based.
For assay [7], the system named is SH-SY5Y. As to the kind of experiment: Neuroprotection against okadaic acid-induced human SH-SY5Y cell death assessed as reduction in LDH release at 0.1 to 1 uM relative to control. On the set-up: scale not given: the % may be the effect or the level left. The assay is classed as functional.
In assay [8] the target is Acetylcholinesterase (Homo sapiens) (UniProt P22303). As to the kind of experiment: Antagonist activity at human nAChR in human SH-SY5Y cells assessed as inhibition of acetylcholine-induced cytosolic Ca2+ signal at 0.3 to 100 uM. The assay is classed as functional, cell-based.

A word on the IC50: it is the concentration that inhibits the measured activity by half.

Calls of active or inactive are those of the source. The rule behind the calls is not given here.

Chain of Acetylcholinesterase (Electrophorus electricus, UniProt O42275) (O42275 whole entry): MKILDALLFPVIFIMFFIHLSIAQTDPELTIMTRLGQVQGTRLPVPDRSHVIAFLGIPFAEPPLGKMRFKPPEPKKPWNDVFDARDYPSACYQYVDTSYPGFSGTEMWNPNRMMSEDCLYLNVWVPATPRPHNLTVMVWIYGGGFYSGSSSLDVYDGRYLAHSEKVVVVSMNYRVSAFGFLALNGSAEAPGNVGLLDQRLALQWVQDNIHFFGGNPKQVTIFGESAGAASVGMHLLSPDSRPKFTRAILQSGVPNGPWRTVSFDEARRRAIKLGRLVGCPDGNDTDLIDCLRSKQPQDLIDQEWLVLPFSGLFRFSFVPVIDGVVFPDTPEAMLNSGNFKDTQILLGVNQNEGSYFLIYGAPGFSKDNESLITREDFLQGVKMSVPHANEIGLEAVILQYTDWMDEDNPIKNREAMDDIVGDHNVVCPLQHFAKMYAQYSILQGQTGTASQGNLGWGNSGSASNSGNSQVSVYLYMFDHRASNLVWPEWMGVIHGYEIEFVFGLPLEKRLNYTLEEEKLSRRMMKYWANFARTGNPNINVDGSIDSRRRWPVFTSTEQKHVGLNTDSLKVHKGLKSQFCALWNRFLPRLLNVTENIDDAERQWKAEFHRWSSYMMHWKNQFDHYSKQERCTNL
Chain of Cholinesterase (P81908 whole entry): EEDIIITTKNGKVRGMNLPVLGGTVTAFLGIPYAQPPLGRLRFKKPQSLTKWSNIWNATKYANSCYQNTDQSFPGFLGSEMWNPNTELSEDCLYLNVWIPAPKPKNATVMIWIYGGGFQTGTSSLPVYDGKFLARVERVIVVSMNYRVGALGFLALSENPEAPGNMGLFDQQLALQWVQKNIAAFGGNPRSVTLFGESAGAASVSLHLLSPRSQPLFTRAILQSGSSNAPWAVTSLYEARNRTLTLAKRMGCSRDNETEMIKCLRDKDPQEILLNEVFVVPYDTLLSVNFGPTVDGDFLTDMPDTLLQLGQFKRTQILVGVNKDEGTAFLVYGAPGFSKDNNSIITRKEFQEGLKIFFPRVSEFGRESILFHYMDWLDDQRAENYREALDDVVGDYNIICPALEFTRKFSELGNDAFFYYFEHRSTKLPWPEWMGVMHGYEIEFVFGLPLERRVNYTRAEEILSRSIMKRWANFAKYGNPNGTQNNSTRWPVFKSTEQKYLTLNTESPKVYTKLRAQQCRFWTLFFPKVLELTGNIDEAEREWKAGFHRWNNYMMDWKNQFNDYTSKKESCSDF
Chain of Acetylcholinesterase (Homo sapiens) (P22303 whole entry): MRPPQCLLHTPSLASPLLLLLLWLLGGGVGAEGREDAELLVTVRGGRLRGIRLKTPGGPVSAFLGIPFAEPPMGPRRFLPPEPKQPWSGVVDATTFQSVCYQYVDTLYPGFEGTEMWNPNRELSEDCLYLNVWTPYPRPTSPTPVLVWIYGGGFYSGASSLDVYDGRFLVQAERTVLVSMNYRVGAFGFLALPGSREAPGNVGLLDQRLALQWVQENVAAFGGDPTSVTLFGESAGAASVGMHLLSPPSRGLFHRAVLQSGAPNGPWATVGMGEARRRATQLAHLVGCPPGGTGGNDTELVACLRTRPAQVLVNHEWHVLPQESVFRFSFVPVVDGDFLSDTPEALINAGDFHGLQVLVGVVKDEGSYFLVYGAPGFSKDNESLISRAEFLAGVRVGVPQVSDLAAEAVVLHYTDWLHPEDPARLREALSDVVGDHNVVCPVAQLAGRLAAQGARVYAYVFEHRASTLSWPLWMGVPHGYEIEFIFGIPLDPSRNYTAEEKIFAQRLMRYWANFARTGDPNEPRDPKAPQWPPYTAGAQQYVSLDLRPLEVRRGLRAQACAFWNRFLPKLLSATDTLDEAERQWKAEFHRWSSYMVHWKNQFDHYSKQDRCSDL

For the molecule `CC(=O)N[C@@H](CS)C(=O)O` [ACETYLCYSTEINE], in the assay with SH-SY5Y [1], the Activity came to 33%.

Turning to `N#Cc1cc2c(N)c3c(nc2nc1Cl)CCCC3`, the Activity in the assay on SH-SY5Y [1] worked out at 4%. For the same molecule, the half-maximal inhibitory concentration (IC50) against Acetylcholinesterase [2] was greater than 100000 nM; on Acetylcholinesterase [3], 5000 nM; at Cholinesterase, greater than 30000 nM.

For the molecule `COc1nc2nc3c(c(N)c2c(-c2ccccc2)c1C#N)CCCC3`, the Activity in the assay on SH-SY5Y [1] came to 12%. Also, the concentration for half-maximal inhibition (IC50) against Acetylcholinesterase [2] was determined as 5000 nM; on Acetylcholinesterase [3], 80 nM; at Cholinesterase, 5100 nM.

In the case of `C#CCNc1nc2nc3c(c(N)c2cc1C#N)CCCC3`, the Activity in the assay on SH-SY5Y [1] amounted to 20%. The IC50 at Acetylcholinesterase [2] came out at 1530 nM; against Acetylcholinesterase [3] it was 30 nM; against Cholinesterase, 2600 nM.

Regarding `N#Cc1cc2c(N)c3c(nc2nc1N1CCCCC1)CCCC3`, in the assay on SH-SY5Y [1], the Activity stood at 19%. Also, the IC50 amounted to 1000 nM against Acetylcholinesterase [2], 25 nM against Acetylcholinesterase [3] and 3600 nM against Cholinesterase.

For the molecule `COc1nc2nc3c(c(N)c2cc1C#N)CN(Cc1ccccc1)CC3`, the Activity in the assay with SH-SY5Y [1] worked out at 11%. Moreover, the IC50 against Acetylcholinesterase [2] was 5000 nM; against Acetylcholinesterase [3], 350 nM; at Cholinesterase it was greater than 100000 nM.

As to `CN(C)c1nc2nc3c(c(N)c2c(-c2ccccc2)c1C#N)CCCC3`, the Activity with SH-SY5Y [1] was 3%. For the same molecule, the figures for the IC50 at Acetylcholinesterase [2], at Acetylcholinesterase [3] and at Cholinesterase were 4400 nM, 90 nM and 7500 nM, respectively.

As for `N#Cc1cc2c(N)c3c(nc2nc1Cl)CCN(Cc1ccccc1)C3`, the Activity in the assay with SH-SY5Y [1] is reported as 20%. Moreover, the IC50 is greater than 100000 nM on Acetylcholinesterase [2], 350 nM against Acetylcholinesterase [3] and greater than 100000 nM against Cholinesterase.

`N#Cc1cc2c(N)c3c(nc2nc1N1CCCC1)CCCC3`: the Activity in the assay on SH-SY5Y [1] was determined as 29%. Besides, the IC50 stood at 160 nM at Acetylcholinesterase [2], 43 nM at Acetylcholinesterase [3] and 5600 nM at Cholinesterase.

For `CN(C)c1nc2nc3c(c(N)c2cc1C#N)CCCC3`, the Activity in the assay with SH-SY5Y [1] amounted to 6%. Also, the IC50 at Acetylcholinesterase [2] turned out to be 100 nM; against Acetylcholinesterase [3], 14 nM; at Cholinesterase it was 5200 nM.

For the molecule `COc1nc2nc3c(c(N)c2cc1C#N)CCCC3`, the Activity in the assay on SH-SY5Y [4] was 65%; with SH-SY5Y [1], 23%; in the assay with SH-SY5Y [7] it was 49%. The IC50 against Acetylcholinesterase [2] was 1600 nM; against Acetylcholinesterase [3] it was 60 nM; against Cholinesterase it was 9600 nM. The inhibition entry in [5] and in assay [8] was “inactive” in each case. The result with SH-SY5Y [6] was Active.

As to `N#Cc1c(Cl)nc2nc3c(c(N)c2c1-c1ccccc1)CCCC3`, the Activity in the assay with SH-SY5Y [1] is given as 8%. In addition, the IC50 is greater than 100000 nM at Acetylcholinesterase [2], greater than 30000 nM against Acetylcholinesterase [3] and greater than 30000 nM against Cholinesterase.

As to `CCOc1nc2nc3c(c(N)c2cc1C#N)CCCC3`, in the assay with SH-SY5Y [1], the Activity turned out to be 29%. The IC50 against Acetylcholinesterase [2] is 1000 nM; against Acetylcholinesterase [3], 50 nM; against Cholinesterase it was greater than 30000 nM.
